Data reported in ChEMBL document CHEMBL1145902, “Design and synthesis of a potent and selective triazolone-based peroxisome proliferator-activated receptor alpha agonist” (J Med Chem, 2003).
Activity calls are given as the source filed them. No cut-off for these calls is given here.

Key:
Mus musculus [1] = species: Mus musculus; assay: animal or person; assay type: functional
Mus musculus [2] = species: Mus musculus; assay type: functional
Mus musculus [3] = species: Mus musculus; assay: animal or person; assay type: functional; details: Serum
Mus musculus [4] = species: Mus musculus; assay: animal or person; assay type: functional; remark: listed apart in the source
[5] = target: T1, Peroxisome proliferator-activated receptor delta (Homo sapiens, UniProt Q03181)
T1 sequence (Q03181 whole entry): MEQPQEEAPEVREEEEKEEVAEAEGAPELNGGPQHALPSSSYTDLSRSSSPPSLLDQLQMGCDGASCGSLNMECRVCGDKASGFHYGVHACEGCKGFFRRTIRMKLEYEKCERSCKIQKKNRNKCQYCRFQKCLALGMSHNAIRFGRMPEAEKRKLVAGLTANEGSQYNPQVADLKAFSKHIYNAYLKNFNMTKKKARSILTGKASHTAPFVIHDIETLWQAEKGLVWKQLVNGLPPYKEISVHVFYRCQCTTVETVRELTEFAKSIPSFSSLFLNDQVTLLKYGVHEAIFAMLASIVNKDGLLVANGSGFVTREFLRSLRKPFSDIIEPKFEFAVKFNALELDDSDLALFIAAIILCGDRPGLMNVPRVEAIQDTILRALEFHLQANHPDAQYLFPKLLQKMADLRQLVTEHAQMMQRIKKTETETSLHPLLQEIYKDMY

[6] = target: T2, Peroxisome proliferator-activated receptor gamma (Homo sapiens, UniProt P37231); assay type: functional
T2 sequence (P37231 whole entry): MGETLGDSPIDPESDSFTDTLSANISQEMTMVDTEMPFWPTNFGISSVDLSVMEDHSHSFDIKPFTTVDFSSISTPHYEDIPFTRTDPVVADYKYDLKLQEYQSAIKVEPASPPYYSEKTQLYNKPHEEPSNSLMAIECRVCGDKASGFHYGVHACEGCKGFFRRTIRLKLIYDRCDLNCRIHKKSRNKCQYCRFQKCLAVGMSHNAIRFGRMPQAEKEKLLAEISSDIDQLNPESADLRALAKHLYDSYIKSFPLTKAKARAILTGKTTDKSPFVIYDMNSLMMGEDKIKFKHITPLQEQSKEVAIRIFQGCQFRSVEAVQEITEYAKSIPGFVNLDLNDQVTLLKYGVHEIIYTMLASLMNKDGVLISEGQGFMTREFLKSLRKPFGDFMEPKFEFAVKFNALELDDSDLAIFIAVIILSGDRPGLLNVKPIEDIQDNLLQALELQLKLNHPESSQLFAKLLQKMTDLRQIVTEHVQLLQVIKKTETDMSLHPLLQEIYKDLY

[7] = target: T3, Peroxisome proliferator-activated receptor alpha (Homo sapiens, UniProt Q07869); assay type: functional
T3 sequence (Q07869 whole entry): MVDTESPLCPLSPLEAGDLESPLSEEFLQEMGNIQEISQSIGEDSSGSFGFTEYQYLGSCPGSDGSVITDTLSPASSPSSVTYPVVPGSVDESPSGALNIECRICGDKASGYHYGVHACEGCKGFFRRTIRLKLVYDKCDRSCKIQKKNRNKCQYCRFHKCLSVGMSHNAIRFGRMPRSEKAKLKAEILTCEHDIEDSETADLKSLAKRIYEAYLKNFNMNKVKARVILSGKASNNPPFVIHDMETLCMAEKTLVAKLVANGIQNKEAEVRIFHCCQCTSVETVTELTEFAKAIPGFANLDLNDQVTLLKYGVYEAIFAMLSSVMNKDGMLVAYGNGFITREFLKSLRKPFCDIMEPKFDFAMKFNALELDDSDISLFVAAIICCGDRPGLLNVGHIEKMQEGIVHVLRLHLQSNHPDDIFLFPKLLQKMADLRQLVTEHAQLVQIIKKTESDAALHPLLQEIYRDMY

[8] = target: T3, Peroxisome proliferator-activated receptor alpha
[9] = target: T4, Peroxisome proliferator-activated receptor gamma (Homo sapiens) (UniProt P37231)
T4 sequence (whole entry): T2 sequence (P37231 whole entry)

[10] = target: T3, Peroxisome proliferator-activated receptor alpha; assay type: functional; remark: listed apart in the source
[11] = target: T5, Peroxisome proliferator-activated receptor delta (Homo sapiens) (UniProt Q03181)
T5 sequence (whole entry): T1 sequence (Q03181 whole entry)

[12] = target: T5, Peroxisome proliferator-activated receptor delta (Homo sapiens); remark: listed apart in the source

CC(C)OC(=O)C(C)(C)Oc1ccc(C(=O)c2ccc(Cl)cc2)cc1 [FENOFIBRATE] gave an ED50 (Mus musculus [1]) of 110 mg/kg, an Increase (Mus musculus [2]) of 120% and an ED50 (Mus musculus [3]) of 79 mg/kg.

For Cc1ccc(Cn2nc(CCCc3ccc(OC(C)(C)C(=O)O)cc3)nc2O)cc1 [LY-518674], the ED50 (Mus musculus [1]) was 0.3 mg/kg, the ED50 (Mus musculus [4]) was 0.1 mg/kg and the Increase (Mus musculus [2]) was 210%. It also gave an IC50 [5] of 3800 nM.

CCCCCCn1c(CCc2ccc(OC(C)(C)C(=O)O)cc2)nn(Cc2cccc(OC)c2)c1=O gave an EC50 [6] of 2600 nM and an EC50 [7] of 2200 nM.

Work on CCCn1c(CCc2ccc(OC(C)(C)C(=O)O)cc2)nn(Cc2ccc(C)cc2)c1=O yielded an EC50 [6] of 2900 nM and an EC50 [7] of 2800 nM.

Work on Cc1ccc(Cn2nc(CCCc3ccc(OC(C)(C)C(=O)O)cc3)n(CCO)c2=O)cc1 yielded an EC50 [7] of 88 nM, an IC50 [5] of 4100 nM and an IC50 [8] of 27 nM.

In the case of CCCn1c(CCCc2ccc(OC(C)(C)C(=O)O)cc2)nn(C(C)c2ccccc2)c1=O (configuration not stated), the EC50 [7] is reported as 220 nM, the IC50 [5] is reported as 1500 nM and the IC50 [8] is reported as 220 nM.

For CC(C)(Oc1ccc(C(=O)c2ccc(Cl)cc2)cc1)C(=O)O [FENOFIBRIC ACID], the NB [9] was “inactive”, the EC50 [10] was 13000 nM and the NB [11] was “inactive”. For the same molecule, the IC50 [8] was 24000 nM.

Cc1ccc(Cn2nc(CCCc3ccc(OC(C)(C)C(=O)O)cc3)n(CC(=O)O)c2=O)cc1 was tested, and the EC50 [7] was 2700 nM, the NB [12] was “inactive” and the IC50 [8] was 960 nM.

With CCCn1c(CCCc2ccc(OC(C)(C)C(=O)O)cc2)nn(Cc2cccc(OC)c2)c1=O the EC50 [7] was 31 nM, the IC50 [5] was 2000 nM and the IC50 [8] was 19 nM.
